Measurements: patent US5258379A, “Method of inhibiting gastric acid secretion with n-arylpiperazines” (Eli Lilly and Company, priority 1992, dated 1993)
Read-outs that look alike come from different tables or passages of the source.

Columns and labels:
gastric secretion = conditions: intravenous infusion in humans, cited from earlier work; for inhibition of gastric secretion (in words): spontaneous and histamine induced
gastric acid secretion = assay: inhibition of gastric acid secretion in the pylorus ligated rat model; format: in vivo, Male Sprague-Dawley rats; conditions: for inhibition in vivo at 10 µmol/kg / inhibition in vivo at 2 µmol/kg: Rattus norvegicus, read-out: Percent Inhibition; for ED50: Table VII, estimated from pylorus ligated rat data; for inhibition in vivo at 2 µmol/kg: 2.0 μmoles/kg; for Inhibition: Table VI
Excerpt: The gastric acid inhibition activity of direct acting 5-HT1A agonists was established by evaluations using the pylorus ligated rat model. In the pylorus ligated rat model, changes in basal acid secretion may reflect a stimulatory or inhibitory action depending on treatment of compound type tested. The compounds tested were confirmed by various receptor binding tests to have an affinity for the 5-HT1A receptor prior to testing in the pylorus ligated rat model.
The pylorus ligated rat model used is a modification of the procedure developed by Shay (Shay, H., Komarov, A. A. and Greenstein, M.: "Effects of vagotomy in the rat." Arch. Surg. 49:210-226, 1949). Male Sprague-Dawley rats weighing approximately 200 g were starved 24 hours prior to using, with water allowed ad libitum. Under light ether anesthetic the pylorus is ligated, simultaneously the rat is dosed intraperitoneally (i.p.) or subcutaneously (s.c.) and allowed 2 hours for stomach acid accumulation. At the end of 2 hours the rats are sacrificed. Stomach content is measured and titrated to a pH end point of 7.0. Each experiment has its own control group for determining percent of acid change over the 2-hour time period.
Specific compounds within the scope of the above general classes of direct acting 5-HT1A agonists were tested. For evaluation purposes, the compound to be tested is dissolved in distilled water, or in 10% dimethyl sulfoxide, depending upon its solubility. The results of these evaluations are set forth below in Tables I through VI. All compounds were dosed intraperitoneally, unless otherwise indicated.
The ED50 values for certain specific compounds were estimated based on data from the pyrolus ligated rat model evaluations. […] Under "Dose", i.p. means intraperitoneally and s.c. means subcutaneously.

[1] = ip, 2 h, Table II, 10 μmoles/kg, intraperitoneally, 2 hours
[2] = ip, 2 h, Table II, intraperitoneally, 2 hours
[3] = 10 μmoles/kg, intraperitoneally, 2 hours
[4] = ip, 2 h, Table IV, 10 μmoles/kg, intraperitoneally, 2 hours
[5] = ip, 2 h, Table V, 10 μmoles/kg, intraperitoneally, 2 hours
[6] = Table I, 10 μmoles/kg, intraperitoneally, 2 hours
[7] = ip, 2 h, Table I, 10 μmoles/kg, intraperitoneally, 2 hours

## N[C@@H](Cc1c[nH]c2ccc(O)cc12)C(=O)O [5-HTP, 5-hydroxytryptophane]
Gastric secretion
  production of mucus (in words): increasing the production of mucus
  inhibition of gastric secretion (in words): inhibits the volume and acidity of both spontaneous and histamine induced gastric secretion

## CCCN(CCC)C1Cc2c[nH]c3ccc(C(=O)O)c(c23)C1 (stereo not shown) [Evaluation Example 15]
Gastric acid secretion; [1]
  inhibition in vivo at 10 µmol/kg: 81.7 ± 5.8%
Gastric acid secretion; ip, 2 h, i.p., read-out: ED50
  ED50: 1 µmol/kg

## O=C1CC2(CCCC2)CC(=O)N1CCCCN1CCN(c2ncccn2)CC1 [Evaluation Example 33, 8-[4-[4-(2-pyrimidinyl)-1-piperazinyl]butyl]8-azaspiro[4.5]decane-7,9-dione, reference compound]
Gastric acid secretion; sc, 2 h, s.c., read-out: ED50
  ED50: 4.19 µmol/kg

## CCCN(CCC)C1Cc2c[nH]c3ccc(C(=O)OC)c(c23)C1 (racemic) [Evaluation Example 13, (±)-4-(Di-n-propylamino)-1,3,4,5-tetrahydrobenz[c,d]indole-6-carboxylic acid, methyl ester]
Gastric acid secretion; [2]
  inhibition in vivo at 2 µmol/kg: 86.4 ± 2.5%
Gastric acid secretion; ip, 2 h, i.p., read-out: ED50
  ED50: < 0.1 µmol/kg

## CCCN(CCC)C1Cc2cn(C(C)C)c3ccc(OC)c(c23)C1 (stereo not shown) [Evaluation Example 16]
Gastric acid secretion; [1]
  inhibition in vivo at 10 µmol/kg: 80.9 ± 5.5%

## CCCN(CCC)C1CC1c1cccc(O)c1 (stereo not shown) [Evaluation Example 31]
Gastric acid secretion; [3]
  Inhibition: 48.2 ± 17.5

## OC(CNC1CCCC1)COc1ccccc1C1CCCC1 (stereo not shown) [Evaluation Example 24, 1-(2-Cyclopentylphenoxy)-3-(Cyclopentylamino)-2-propanol ethanedioate]
Gastric acid secretion; [4]
  inhibition in vivo at 10 µmol/kg: 19.7 ± 14.8%

## Oc1cccc2c1OC(CNCCCC1CCCCC1)CO2 (stereo not shown) [Evaluation Example 25, 2-[(3-Cyclohexylpropyl)aminomethyl]-8-hydroxy-1,4-benzodioxane]
Gastric acid secretion; [5]
  inhibition in vivo at 10 µmol/kg: 70.4 ± 8.4%

## CCCN(CCC)C1CCc2cccc(O)c2C1 (stereo not shown) [Evaluation Example 8, 8-hydroxy-2-dipropylamino-1,2,3,4-tetrahydronaphthalene, reference compound]
Gastric acid secretion; ip, 2 h, Table I, intraperitoneally, 2 hours
  inhibition in vivo at 2 µmol/kg: 80.1 ± 6.3%
Gastric acid secretion; ip, 2 h, i.p., read-out: ED50
  ED50: 1.56 µmol/kg
Gastric acid secretion; sc, 2 h, s.c., read-out: ED50
  ED50: 0.46 µmol/kg

## CCCN(CCC)C1Cc2c[nH]c3ccc(OC)c(c23)C1 (stereo not shown) [Evaluation Example 14]
Gastric acid secretion; [1]
  inhibition in vivo at 10 µmol/kg: 86.4 ± 4%
Gastric acid secretion; ip, 2 h, i.p., read-out: ED50
  ED50: < 0.1 µmol/kg

## O=C1NCN(c2ccccc2)C12CCN(CC1COc3ccccc3O1)CC2 (single isomer, unassigned) [Evaluation Example 28]
Gastric acid secretion; [5]
  inhibition in vivo at 10 µmol/kg: 29.3 ± 10%

## CN(C)C1Cc2c[nH]c3ccc(C#N)c(c23)C1 (stereo not shown) [Evaluation Example 10]
Gastric acid secretion; [1]
  inhibition in vivo at 10 µmol/kg: 91.6 ± 3.9%

## CCOc1cccc2c1OC(CNCCc1ccccc1)CO2 (stereo not shown) [Evaluation Example 27, 2-[(2-phenylethyl)aminomethyl]-8-ethoxy-1,4-benzodioxane]
Gastric acid secretion; [5]
  inhibition in vivo at 10 µmol/kg: 38.3 ± 15.9%

## CN(C)C1Cc2c[nH]c3ccc(C=O)c(c23)C1 (racemic) [Evaluation Example 17, (±)-4-(Dimethylamino)-1,3,4,5-tetrahydrobenz[c,d]indole-6-carboxaldehyde]
Gastric acid secretion; [2]
  inhibition in vivo at 2 µmol/kg: 79.2 ± 4.6%
Gastric acid secretion; ip, 2 h, i.p., read-out: ED50
  ED50: 1.26 µmol/kg

## CCCN(CCC)[C@H]1CCc2cccc(SC)c2C1.Cl [Evaluation Example 3, (S)-8-Thiomethyl-N,N-dipropyl-2-aminotetralin hydrochloride]
Gastric acid secretion; [6]
  Percent Inhibition: 89.8 ± 4.9%
Gastric acid secretion; i.p., 120 min
  ED50: 1.42 µmol/kg

## c1ccc(CCNCC2COc3ccccc3O2)cc1 (stereo not shown) [Evaluation Example 30, 2-[(2-phenylethyl)aminomethyl]-1,4-benzodioxane]
Gastric acid secretion; [5]
  inhibition in vivo at 10 µmol/kg: 0.3 ± 14.1%

## COc1ccc(CCNCC2COc3ccccc3O2)cc1OC (stereo not shown) [Evaluation Example 26]
Gastric acid secretion; [5]
  inhibition in vivo at 10 µmol/kg: 58.9 ± 6.6%

## CCCN(CCC)C1Cc2c[nH]c3ccc(Br)c(c23)C1 (stereo not shown) [Evaluation Example 12]
Gastric acid secretion; [1]
  inhibition in vivo at 10 µmol/kg: 87 ± 1.8%

## OC(CNC1CCCCCCC1)COc1ccccc1C1CCCC1 (stereo not shown) [Evaluation Example 21, 1-(2-Cyclopentylphenoxy)-3-(cyclooctylamino)-2-propanol ethanedioate]
Gastric acid secretion; [4]
  inhibition in vivo at 10 µmol/kg: 65.1 ± 5.7%

## CSc1cccc2c1CC(N(C)C)CC2 (stereo not shown) [Evaluation Example 5, 2-Dimethylamino-8-thiomethyl-1,2,3,4-tetrahydronaphthalene]
Gastric acid secretion; [7]
  inhibition in vivo at 10 µmol/kg: 80.7 ± 8.4%

## CCCN(CCC)C1CCc2cccc(C(N)=O)c2C1 (stereo not shown) [Evaluation Example 4]
Gastric acid secretion; [7]
  inhibition in vivo at 10 µmol/kg: 82.5 ± 7.4%

## OC(CNC1CC2CCC1C2)COc1ccccc1C1CCCC1 (stereo not shown) [Evaluation Example 20]
Gastric acid secretion; [4]
  inhibition in vivo at 10 µmol/kg: 72.4 ± 7.5%

## CCCN(CCC)C1Cc2c[nH]c3ccc(C(N)=O)c(c23)C1 (stereo not shown) [Evaluation Example 18]
Gastric acid secretion; ip, 2 h
  inhibition in vivo at 10 µmol/kg: 65.5 ± 7.1%

## CCCN(CCC)C1CCc2cccc(Br)c2C1 (stereo not shown) [Evaluation Example 6, 2-Di-n-propylamino-8-bromo-1,2,3,4-tetrahydronaphthalene]
Gastric acid secretion; [7]
  inhibition in vivo at 10 µmol/kg: 39.6 ± 10.9%

## CCCN(CCC)C1CC1c1ccccc1O (stereo not shown) [Evaluation Example 32]
Gastric acid secretion; [3]
  Inhibition: 22.6 ± 11.8

## CCCN(CCC)C1Cc2c[nH]c3ccc(C#N)c(c23)C1 (stereo not shown) [Evaluation Example 9]
Gastric acid secretion; [1]
  inhibition in vivo at 10 µmol/kg: 92.2 ± 3.2%

## CCCN(CCC)C1CCc2cccc(F)c2C1 (stereo not shown) [Evaluation Example 7]
Gastric acid secretion; [7]
  inhibition in vivo at 10 µmol/kg: 24.6 ± 7.9%

## NCCc1c[nH]c2ccc(O)cc12 [5-HT, 5-hydroxytryptamine, reference compound]
Gastric secretion
  production of mucus (in words): increasing the production of mucus
  inhibition of gastric secretion (in words): inhibits the volume and acidity of both spontaneous and histamine induced gastric secretion
Gastric acid secretion; 20 micromoles/kg, standard
  inhibition of gastric acid secretion: 56.1%
Gastric acid secretion; ip, 2 h, i.p., read-out: ED50
  ED50: 11.5 µmol/kg

## CCCN(CCC)C1Cc2c[nH]c3ccc([N+](=O)[O-])c(c23)C1 (stereo not shown) [Evaluation Example 11]
Gastric acid secretion; [1]
  inhibition in vivo at 10 µmol/kg: 89.8 ± 1.4%

## CCCN(CCC)CCc1c[nH]c2ccc(C(N)=O)cc12 [Evaluation Example 19, N,N-dipropyl-5-carboxamidotryptamine]
Gastric acid secretion; ip, 2 h
  inhibition in vivo at 10 µmol/kg: 92.7 ± 3.3%

## CCCN(CCC)C1CCc2cccc(OC)c2C1 (racemic) [Evaluation Example 1, (±) 8-methoxy-2-(dipropylamino)-1,2,3,4-tetrahydronaphthalene]
Gastric acid secretion; [7]
  inhibition in vivo at 10 µmol/kg: 96.4 ± 0.7%
Gastric acid secretion; ip, 2 h, i.p., read-out: ED50
  ED50: 1.54 µmol/kg

## O=C1NCN(c2ccccc2)C12CCN(CC1COc3ccccc3O1)CC2 (single isomer, unassigned) [Evaluation Example 29]
Gastric acid secretion; Table V, 10 μmoles/kg, intraperitoneally, 2 hours
  Percent Inhibition: 24.6 ± 9.2%

## CCCN(CCC)[C@@H]1CCc2cccc(SC)c2C1.Cl [Evaluation Example 2, (R)-8-Thiomethyl-N,N-dipropyl-2-aminotetralin hydrochloride]
Gastric acid secretion; [6]
  Percent Inhibition: 94.9 ± 1.2%
Gastric acid secretion; i.p., 120 min
  ED50: 1.56 µmol/kg
